{"source": "patent US20250009734A1", "about": "“METHODS OF INHIBITING FOXO1 FOR TREATMENT OF LYMPHATIC DISORDERS” (UNIVERSITY OF SOUTH FLORIDA, priority 2023, published 2025)", "system": "Foxc2^+/CreERT2 mice", "experiment": "Mesenteric lymphatic valve counting after i.p. injection in pups", "assay_type": "in vivo, mouse", "description": "FIGS. 3A-3F. AS1842856 treatment in vivo increases valve number in Foxc2^+/CreERT2 mice. (A) Schematic illustration of AS1842856 injection procedure in postnatal day (P) 7-21 pups. (B-E) Fluorescent images showing the morphology of mesenteric collecting lymphatic vessels at P21. Mesenteries are from Prox1-GFP with DMSO (vehicle control) injection (B); Prox1-GFP with AS1842856 injection (C); Foxc2^+/CreERT2; Prox1-GFP with DMSO injection (D); Foxc2^+/CreERT2; Prox1-GFP with AS1842856 injection (E). (F) Quantification of valves per millimeter at P21 from 4 groups of mice. 4 mice are used for the analysis. All values are mean±SEM. Two-way ANOVA was performed with Turkey's multiple comparisons. ns=not significant, *p≤0.05, ***p<0.001. Scale bar is 1000 μm.\nFoxc2 is a chief regulator of lymphatic valve development modulating the expression of many valve genes (Sabine et al., 2015). While Foxc2 null animals are embryonic lethal, the Foxc2 heterozygous mice are a model of the human disease lymphedema-distichiasis with severe lymphatic valve loss (Kriederman et al., 2003, Petrova et al., 2004). To test whether AS1842856 treatment increases valve growth in vivo, the inventors intraperitoneally (i.p.) injected AS1842856 into Foxc2^+/CreERT2 pups. Instead of using wildtype pups as control, Prox1-GFP mice were used as control as well as for visualizing the lymphatic vasculature (Choi et al., 2011). The Foxc2^+/CreERT2 pups were also bred to carry the Prox1-GFP allele. Since the open reading frame in one allele of the Foxc2 gene is replaced with the cDNA for CreERT2, the Foxc2^+/CreERT2 mice is heterozygous for Foxc2 gene (Geng et al., 2016). […] To compare the number of valves from these 4 groups, the inventors counted total number of valves from 6 branches (from the lymph nodes to the gut wall) in the mesentery and measured the total length of these branches as previously published (Scallan et al., 2021). […]\nTM administered postnatal pups were euthanized using an IACUC approved method and the colleting lymphatics were analyzed at the experimental timepoints. […]", "data": [{"smiles": "CCn1cc(C(=O)O)c(=O)c2c(N)c(F)c(NC3CCCCC3)cc21", "note": "[AS1842856]", "values": [{"measurement": "valves/mm in mesentery", "setting": "Foxc2^+/CreERT2 pups with AS1842856 injection (8 mg/kg i.p. every other day P7-P21) vs Foxc2^+/CreERT2 pups with DMSO injection", "result": "significantly higher"}, {"measurement": "valves/mm in mesentery", "setting": "Foxc2^+/CreERT2 pups with AS1842856 injection (8 mg/kg i.p. every other day P7-P21) vs Prox1-GFP pups with DMSO injection", "result": "still significantly lower"}, {"measurement": "valves/mm in mesentery", "setting": "Prox1-GFP pups with AS1842856 injection (8 mg/kg i.p. every other day P7-P21) vs Prox1-GFP pups with DMSO injection", "result": "no significant difference"}]}]}
